From US9241487B2, “Pyrimidine derivatives and use thereof as pesticides” (BAYER INTELLECTUAL PROPERTY GMBH, priority 2010, dated 2016)

Tests used:
[1] = log P by HPLC on reversed-phase columns (C 18), EEC directive 79/831 Annex V.A8; type: physicochemical; conditions: reversed-phase HPLC columns (C 18); method [a]: LC-MS, acidic range pH 2.7, 0.1% aqueous formic acid/acetonitrile, gradient 10% to 95% acetonitrile
Method: The log P values were measured according to EEC directive 79/831 Annex V.A8 by HPLC (High Performance Liquid Chromatography) on reversed-phase columns (C 18), using the methods below: [a] The LC-MS determination in the acidic range is carried out at pH 2.7 with 0.1% aqueous formic acid and acetonitrile (contains 0.1% formic acid) as mobile phases; linear gradient from 10% acetonitrile to 95% acetonitrile.

[2] = system: Sphaerotheca fuliginea; experiment: Sphaerotheca test (cucumber)/protective; type: in vivo; conditions: Podosphaera fuliginea, 168 h, cucumber plants, protective spray, evaluation 7 days after inoculation, read-out: Efficacy (%)
Method: Sphaerotheca Test (Cucumber)/Protective
(§1) Solvent: 49 parts by weight of N,N-dimethylformamide
(§2) Emulsifier: 1 part by weight of alkylaryl polyglycol ether
To produce a suitable preparation of active compound, 1 part by weight of active compound is mixed with the stated amounts of solvent and emulsifier, and the concentrate is diluted with water to the desired concentration. To test for protective activity, young cucumber plants are sprayed with the preparation of active compound at the stated application rate. 1 day after the treatment, the plants are inoculated with a spore suspension of Sphaerotheca fuliginea. The plants are then placed in a greenhouse at 70% relative air humidity and a temperature of 23° C. Evaluation follows 7 days after the inoculation. 0% means an efficacy which corresponds to that of the control, whereas an efficacy of 100% means that no infection is observed. In this test, the following compounds according to the invention show, at an active compound concentration of 500 ppm, an efficacy of 70% or more: […]

[3] = system: Alternaria solani; experiment: Alternaria test (tomato)/protective; type: in vivo; conditions: 168 h, tomato plants, protective spray, evaluation 7 days after inoculation, read-out: Efficacy (%)
Method: Alternaria Test (Tomato)/Protective
as §1, §2
To produce a suitable preparation of active compound, 1 part by weight of active compound is mixed with the stated amounts of solvent and emulsifier, and the concentrate is diluted with water to the desired concentration. To test for protective activity, young tomato plants are sprayed with the preparation of active compound at the stated application rate. 1 day after the treatment, the plants are inoculated with a spore suspension of Alternaria solani and then remain at 100% rd. humidity and 22° C. for 24 h. The plants then remain at 96% rd. atmospheric humidity and a temperature of 20° C. Evaluation is carried out 7 days after the inoculation. 0% means an efficacy which corresponds to that of the control, whereas an efficacy of 100% means that no infection is observed.
(§3) In this test, the following compounds according to the invention show, at an active compound concentration of 500 ppm, an efficacy of 70% or more: […]

[4] = system: Leptosphaeria nodorum; experiment: Leptosphaeria nodorum test (wheat)/protective; type: in vivo; conditions: Parastagonospora nodorum, wheat plants, protective spray, evaluation 7-9 days after inoculation, read-out: Efficacy (%)
Method: Leptosphaeria nodorum Test (Wheat)/Protective
as §1, §2
To produce a suitable preparation of active compound, 1 part by weight of active compound is mixed with the stated amounts of solvent and emulsifier, and the concentrate is diluted with water to the desired concentration. To test for protective activity, young wheat plants are sprayed with the preparation of active compound at the stated application rate. 1 day after the treatment, the plants are inoculated with an aqueous spore suspension of Leptosphaeria nodorum and then remain at 100% relative atmospheric humidity and 22° C. for 48 h. The plants are then placed in a greenhouse at 90% relative atmospheric humidity and a temperature of 22° C. Evaluation is carried out 7-9 days after the inoculation. 0% means an efficacy which corresponds to that of the control, whereas an efficacy of 100% means that no infection is observed. In this test, the following compounds according to the invention show, at an active compound concentration of 500 ppm, an efficacy of 70% or more: […]

[5] = system: Blumeria graminis fsp. hordei; experiment: Blumeria graminis test (barley)/protective; type: in vivo; conditions: 168 h, protective spray, evaluation 7 days after inoculation, read-out: Efficacy (%)
Method: Blumeria graminis Test (Barley)/Protective
(§4) Solvent: 49 parts by weight of N,N-dimethylacetamide
as §2
To produce a suitable preparation of active compound, 1 part by weight of active compound is mixed with the stated amounts of solvent and emulsifier, and the concentrate is diluted with water to the desired concentration. To test for protective activity, young plants are sprayed with the preparation of active compound at the stated application rate. After the spray coating has dried on, the plants are dusted with spores of Blumeria graminis fsp. hordei. The plants are placed in a greenhouse at a temperature of about 18° C. and a relative air humidity of about 80% to promote the development of mildew pustules. Evaluation follows 7 days after the inoculation. 0% means an efficacy which corresponds to that of the control, whereas an efficacy of 100% means that no infection is observed.
as §3

[6] = system: Septoria tritici; experiment: Septoria tritici test (wheat)/protective; type: in vivo; conditions: Zymoseptoria tritici, 504 h, protective spray, evaluation 21 days after inoculation, read-out: Efficacy (%)
Method: Septoria tritici Test (Wheat)/Protective
as §4, §2
(§5) To produce a suitable preparation of active compound, 1 part by weight of active compound is mixed with the stated amounts of solvent and emulsifier, and the concentrate is diluted with water to the desired concentration. To test for protective activity, young plants are sprayed with the preparation of active compound at the stated application rate. After the spray coating has dried on, the plants are sprayed with a spore suspension of Septoria tritici. The plants remain in an incubation cabin at 20° C. and 100% relative atmospheric humidity for 48 hours. Thereafter, the plants are placed under a translucent hood at 15° C. and 100% relative air humidity for a further 60 hours. The plants are placed in a greenhouse at a temperature of about 15° C. and a relative atmospheric humidity of about 80%. Evaluation follows 21 days after the inoculation. 0% means an efficacy which corresponds to that of the control, whereas an efficacy of 100% means that no infection is observed.
as §3

[7] = system: Venturia inaequalis; experiment: Venturia test (apple)/protective; type: in vivo; conditions: 240 h, protective spray, evaluation 10 days after inoculation, read-out: Efficacy (%)
Method: Venturia Test (Apple)/Protective
(§6) Solvents: 24.5 parts by weight of acetone
(§7) • 24.5 parts by weight of dimethylacetamide Emulsifier: 1 part by weight of alkylaryl polyglycol ether
(§8) To produce a suitable preparation of active compound, 1 part by weight of active compound is mixed with the stated amounts of solvent and emulsifier, and the concentrate is diluted with water to the desired concentration. To test for protective activity, young plants are sprayed with the preparation of active compound at the stated application rate. After the spray coating has dried on, the plants are inoculated with an aqueous conidia suspension of the apple scab pathogen Venturia inaequalis and then remain in an incubation cabin at approx. 20° C. and 100% relative air humidity for 1 day. The plants are then placed in the greenhouse at about 21° C. and a relative atmospheric humidity of about 90%. Evaluation follows 10 days after the inoculation. 0% means an efficacy which corresponds to that of the control, whereas an efficacy of 100% means that no infection is observed.
(§9) In this test, the following compounds according to the invention show, at an active compound concentration of 100 ppm, an efficacy of 70% or more: […]

[8] = system: Uromyces appendiculatus; experiment: Uromyces test (bean)/protective; type: in vivo; conditions: 240 h, protective spray, evaluation 10 days after inoculation, read-out: Efficacy (%)
Method: Uromyces Test (Bean)/Protective
as §6, §7
as §8, with “spore” for “conidia”, “bean rust” for “apple scab”, “Uromyces appendiculatus” for “Venturia inaequalis”, “about” for “approx.”, “atmospheric” for “air”
as §9

[9] = system: Puccinia triticina; experiment: Puccinia triticina test (wheat)/protective; type: in vivo; conditions: 192 h, protective spray, evaluation 8 days after inoculation, read-out: Efficacy (%)
Method: Puccinia triticina Test (Wheat)/Protective
as §4, §2
as §5, with “sprayed with spores with a spore” for “sprayed with a spore”, “suspension of Puccinia triticina. The plants” for “suspension of Septoria tritici. The plants”, “48 hours. The plants” for “48 hours. Thereafter, the plants are placed under a translucent hood at 15° C. and 100% relative air humidity for a further 60 hours. The plants”, “of about 20° C. and” for “of about 15° C. and”, “Evaluation follows 8 days after” for “Evaluation follows 21 days after”
as §3

chromatographic logP [1] | Compound | pest or weed control at 500 ppm [2] [%] | pest or weed control at 500 ppm [3] [%] | pest or weed control at 500 ppm [4] [%] | pest or weed control at 500 ppm [5] [%] | pest or weed control at 500 ppm [6] [%] | pest or weed control at 100 ppm [7] [%] | pest or weed control at 100 ppm [8] [%] | pest or weed control at 500 ppm [9] [%]
3.28 | CC(C)C(O)(CSc1ccc(SC(F)(F)F)cc1)c1cncnc1 (centres unmarked) [Compound 3] | 94 | 95 | 90 | 100 | 75 | – | – | –
– | CC(C)(C)C(O)(CSc1ccc(SC(F)(F)F)cc1)c1cncnc1 (centres unmarked) [Compound 4] | 91 | 95 | 70 | 89 | 100 | – | – | –
– | CC(C)(C)C(O)(CCc1ccc(SC(F)(F)F)cc1)c1cncnc1 (centres unmarked) [Compound 7] | 95 | 94 | 95 | – | – | – | – | –
– | OC(c1cncnc1)(c1ccc(F)cc1F)C1(Oc2ccc(SC(F)(F)F)cc2)CC1 (centres unmarked) [Compound 8] | 100 | 80 | – | – | – | – | – | –
– | CC(C)(Oc1ccc(OC(F)(F)F)cc1)C(C)(O)c1cncnc1 (centres unmarked) [Compound 9] | 95 | 100 | 100 | 100 | 90 | 94 | 100 | 100
– | CC(C)(Sc1ccc(OC(F)(F)F)cc1)C(C)(O)c1cncnc1 (centres unmarked) [Compound 10] | – | 100 | 100 | – | – | – | – | –
– | CC(C)(Sc1ccc(SC(F)(F)F)cc1)C(C)(O)c1cncnc1 (centres unmarked) [Compound 11] | – | 100 | 95 | – | – | – | – | –
– | CC#CC(O)(c1cncnc1)C(C)(C)Sc1ccc(OC(F)(F)F)cc1 (centres unmarked) [Compound 13] | 76 | 100 | 95 | – | – | – | – | –
– | CC#CC(O)(c1cncnc1)C(C)(C)Oc1ccc(OC(F)(F)F)cc1 (centres unmarked) [Compound 14] | 95 | 94 | 100 | 100 | 90 | – | – | 89
– | CC#CC(O)(c1cncnc1)C(C)(C)Sc1ccc(SC(F)(F)F)cc1 (centres unmarked) [Compound 15] | 88 | 94 | 95 | – | – | – | – | –
– | C=CCC(O)(c1cncnc1)C(C)(C)Sc1ccc(SC(F)(F)F)cc1 (centres unmarked) [Compound 16] | – | 100 | 70 | – | – | – | – | –
– | OC(COc1ccc(OC(F)(F)F)cc1)(c1cncnc1)C1(Cl)CC1 (centres unmarked) [Compound 20] | 75 | 100 | 95 | – | – | 100 | 98 | –
– | OC(COc1ccc(SC(F)(F)F)cc1)(c1cncnc1)C1(Cl)CC1 (centres unmarked) [Compound 21] | 100 | 95 | – | – | – | – | – | –
– | CC(C)(Oc1cccc(OC(F)(F)F)c1)C(C)(O)c1cncnc1 (centres unmarked) [Compound 22] | 95 | 100 | 100 | – | – | 94 | – | –
– | CC#CC(O)(c1cncnc1)C(C)(C)Oc1cccc(OC(F)(F)F)c1 (centres unmarked) [Compound 23] | 88 | 75 | 70 | – | – | – | – | –
– | CC(C)C(O)(c1cncnc1)C(C)(C)Oc1cccc(OC(F)(F)F)c1 (centres unmarked) [Compound 24] | 83 | 95 | 80 | – | – | – | – | –
– | CC(C)(Oc1ccccc1OC(F)(F)F)C(C)(O)c1cncnc1 (centres unmarked) [Compound 25] | – | 90 | – | – | – | – | – | –
– | CC(C)C(O)(c1cncnc1)C(C)(C)Oc1ccccc1OC(F)(F)F (centres unmarked) [Compound 27] | 88 | – | – | – | – | – | – | –
3.47 | CC(C)(C)C(O)(COc1ccc(OC(F)(F)F)cc1Cl)c1cncnc1 (centres unmarked) [Compound 29] | 100 | 78 | 75 | – | – | – | – | –
3.04 | Cc1cc(OCC(O)(c2cncnc2)C(C)(C)C)ccc1SC(F)(F)F (centres unmarked) [Compound 32] | 95 | – | – | – | – | – | – | –
2.63 | CC(C)(C)C(O)(COc1ccc(OC(F)F)cc1)c1cncnc1 (centres unmarked) [Compound 34] | 95 | 95 | 100 | – | – | – | – | –
